# Values of other authors, collected in patent US8592481B2 (Depomed, Inc., priority 2005, dated 2013).
# Settings: in vivo
substance,measurement,value
1-(aminomethyl)cyclohexane acetic acid [gabapentin],circulating gabapentin bound to plasma proteins,3%
